Assay results as given in patent US6344217B1, “Putamen OVI” (priority 1994, dated 2002).
Values joined by “and” are separate entries in the source; they are usually repeats but may differ in a detail not shown here. Equal entries are not always repeated. “Also recorded” adds a separate entry of the source.

Columns and labels:
Male Wistar rats [1] = assay: Leucocyte/lymphocyte differentiation by flow cytometry after 7-day treatment of rats; format: in vivo, rat
Experimental: (§1) Male Wistar rats having an average body weight of 322.5 g were kept under conventional conditions at a room temperature of 21±1° C., a relative atmospheric humidity of about 60% and a 12 hour day/night cycle. Prior to the start of the experiment, they where subjected to an acclimatization to those keeping conditions for 12 days.
(§2) Feeding was performed with the pelletized standard diet Altromin C 1000, Misch. Nr. 100 (Altrogge). The animals were given tap water ad libidum as drinking water.
(§3) 1. Coated tablet core granules, micronized with putamen ovi; 1 coated tablet core aar® os with 640 mg contains 440 mg of putamen ovi, micronized, corresponding to 160 mg of calcium; Dosage form: Putamen ovi, coated tablet core granules, 146 mg (≡100 mg of putamen ovi, micronized≈36.5 mg of Ca) is suspended in 2 ml of dist. water (POS), 0.5 ml (POS)≡9.125 mg of Ca (PO)/[…]
(§4) The suspension were freshly prepared immediately before the administration and homogeneously administered. The control animals were given physiological saline in an equivalent volume.
The leucocyte differentiation was performed using the flow cytometer FACScan following appropriate lysing of the whole blood sample (scattered light measurement).
The lymphocyte differentiation was performed after specific monoclonal incubation by means of fluorescence-activated cell sorting (fluorescence measurement).
On the 7th day of treatment, there were analyzed quantitatively:
For determining the phenotypes of the lymphocytes, they were incubated with the following antibodies of Pharmingen, San Diego (USA), to which a fluorochrome was coupled:
5 μl each of the antibodies is incubated with 50 μl of Na-EDTA-blood at room temperature in the dark for 20 min. The suspension is agitated with 2 ml of Lyses Reagenz of Becton-Dickinson and incubated for 10 min as described. This followed by centrifuging at 400×g for 6 min, and the supernatant is poured off. The pellet is washed with 3 ml of Cell Wash and centrifuged at 400×g for 6 min. The pellet is taken up in 100 μl of Cell Wash. The suspension is analyzed by means of the flow cytometer.
(§5) Measurements were performed with the following test substances (corresponding values for the control=100%): […]

Male Wistar rats [2] = assay: Clinical-chemical serum parameters after 7-day treatment of rats; format: in vivo, rat
Experimental: as §1, §2, §3, §4
Parameters such as enzymes, glucose, lipids, electrolytes, creatinin, urea and protein are detected selectively, method-oriented, photometrically or ion-selectively using the analyzer Cobas Mira. The supplemental report furnishes analysis-specific data of quality control and statistics.
The following clinical-chemical metabolic measurement values were analyzed in a combined method-specific manner: Bilirubin, creatinin, urea, glutamate oxalacetate transaminase (GOT), glutamate pyruvate transaminase (GPT), gamma-glutamyl transferase (GGT), glucose, cholesterol, triglycerides, calcium, sodium, potassium, chloride and total protein.
as §5

Male Wistar rats [3] = assay: Haematology (WBC, RBC) after 7-day intragastral treatment of rats; format: in vivo, rat
Experimental: as §1, §2, §3, §4
erythrocytes (RBC), leucocytes (WBC), platelets (PLT), hemoglobin (HGB), hematocrit (HCT)
By means of the fully automated hematology analyzer Sysmex K-1000, the following were determined: WBC, RBC, PLT as well as HGB and HCT, further MCV, MCH and MCHC. The main unit of this device essentially consists of a hydraulic (HS) and an electronic (ES) system. The HS is used for sucking, pipetting, diluting, mixing and lysing. The ES analyzes and converts the signals from the HS and submits the results to the printer. With the aid of microprocessors, the ES also monitors the test runs, the testing station, and performs a quality control.
The hematocrit value corresponds to the percent volume fraction of erythrocytes in blood. In addition to the number of erythrocytes and the hematocrit value, the level of hemoglobin, the chromoprotein contained in the erythrocytes, is an important criterion for the diagnostics of anemias. Classification is performed by the erythrocyte indices. Erythrocyte size and hemoglobin content are characterized by the erythrocyte volume (MCV=mean corpuscular volume), the hemoglobin content of the erythrocytes (MCH=mean corpuscular hemoglobin), and the mean corpuscular hemoglobin concentration (MCHC). The erythrocyte distribution width (RDW=red cell distribution width) is a measure of anisocytosis.
as §5

Male Wistar rats [4] = assay: Histological examination of organs after 7-day treatment of rats; details: 7 days
Experimental: as §1, §2, §3, §4

[5] = system: healthy females in post-menopause; details: two-year study, 361 healthy females in post-menopause; cited from earlier work
[6] = change vs control (=100%), rats, 7th day of treatment, peripheral blood
[7] = change vs control (=100%), rats, 7 days intragastral, serum
[8] = change vs control (=100%), rats, intragastral once daily for 7 days, peripheral blood

[F-].[Na+] [NF, Sodium fluoride]
T lymphocytes (Male Wistar rats [1]; [6]): did not induce an effect; also recorded: unch | helper lymphocytes (Male Wistar rats [1]; [6]): did not induce an effect; also recorded: unch | lymphocytes (Male Wistar rats [1]; [6]): unch. | supp. lymphocytes (Male Wistar rats [1]; [6]): did not induce an effect; also recorded: unch | AP (alkaline phosphatase) (Male Wistar rats [2]; [7]): unch. | Ca (Male Wistar rats [2]; [7]): unch. | GLDH (Male Wistar rats [2]; [7]): −17.3% | GOT (Male Wistar rats [2]; [7]): −9.8% | GPT (Male Wistar rats [2]; [7]): −9.7% | SP (acid phosphatase) (Male Wistar rats [2]; [7]): −7.5% | bilirubin (Male Wistar rats [2]; [7]): +13.8% | cholesterol (Male Wistar rats [2]; [7]): −8.7% | creatinin (Male Wistar rats [2]; [7]): −20.7% | glucose (Male Wistar rats [2]; [7]): +15.7% | triglycerides (Male Wistar rats [2]; [7]): −4.2% | urea (Male Wistar rats [2]; [7]): −13.2% | WBC (number of leucocytes) (Male Wistar rats [3]; [8]): +13.8%

O=P1(N(CCCl)CCCl)NCCCO1 (stereo not drawn) [CyS, Cyclophosphamide]
B lymphocytes (Male Wistar rats [1]; [6]): −79.9% | T lymphocytes (Male Wistar rats [1]; [6]): −51% and −51.9% | helper lymphocytes (Male Wistar rats [1]; [6]): −45.9% | lymphocytes (Male Wistar rats [1]; [6]): −55.0% | polymorphs (polymorphonuclear granulocytes) (Male Wistar rats [1]; [6]): −28.1% | supp. lymphocytes (Male Wistar rats [1]; [6]): −30.9% | AP (alkaline phosphatase) (Male Wistar rats [2]; [7]): −14.7% | Ca (Male Wistar rats [2]; [7]): −23.2% | GLDH (Male Wistar rats [2]; [7]): −21.3% | GOT (Male Wistar rats [2]; [7]): −24.6% | GPT (Male Wistar rats [2]; [7]): −30.8% | SP (acid phosphatase) (Male Wistar rats [2]; [7]): −9.1% | bilirubin (Male Wistar rats [2]; [7]): +58.6% | cholesterol (Male Wistar rats [2]; [7]): −25% | creatinin (Male Wistar rats [2]; [7]): −28.3% | glucose (Male Wistar rats [2]; [7]): +5.2% | triglycerides (Male Wistar rats [2]; [7]): +10.1% | urea (Male Wistar rats [2]; [7]): unch. | WBC (number of leucocytes) (Male Wistar rats [3]; [8]): −51.3% | erythrocytes in thorn-apple form (acanthocytes) in bone marrow sinuses (Male Wistar rats [4]): encountered

O=C([O-])[O-].[Ca+2] [CC, Calcium carbonate]
inhibitory influence on bone mass losses [5]: only a slightly pronounced inhibitory influence | B lymphocytes (Male Wistar rats [1]; rat, in vivo): +7.6% | T lymphocytes (Male Wistar rats [1]; rat, in vivo): unch. | chemoprotective effect (Male Wistar rats [1]; rat, in vivo): neither showed positive effects in clinically healthy rats nor chemoprotective effects | helper lymphocytes (Male Wistar rats [1]; rat, in vivo): −4.3% | lymphocytes (Male Wistar rats [1]; rat, in vivo): unch. | polymorphs (polymorphonuclear granulocytes) (Male Wistar rats [1]; rat, in vivo): unch. | supp. lymphocytes (Male Wistar rats [1]; rat, in vivo): +12.4% | Ca (Male Wistar rats [2]; [7]): unch. | AP (alkaline phosphatase) (Male Wistar rats [2]; rat, in vivo): +5.5% | GLDH (Male Wistar rats [2]; rat, in vivo): +6.7% | GOT (Male Wistar rats [2]; rat, in vivo): −7.1% | GPT (Male Wistar rats [2]; rat, in vivo): unch. | SP (acid phosphatase) (Male Wistar rats [2]; rat, in vivo): unch. | bilirubin (Male Wistar rats [2]; rat, in vivo): −17.3% | cholesterol (Male Wistar rats [2]; rat, in vivo): unch. | creatinin (Male Wistar rats [2]; rat, in vivo): −19.7% | glucose (Male Wistar rats [2]; rat, in vivo): +6.7% | triglycerides (Male Wistar rats [2]; rat, in vivo): −7.8% | urea (Male Wistar rats [2]; rat, in vivo): −13.9% | RBC (number of erythrocytes) (Male Wistar rats [3]; rat, in vivo): not increased

NS(=O)(=O)c1cc(C(=O)O)c(NCc2ccco2)cc1Cl [FUR, Furosemide]
T lymphocytes (Male Wistar rats [1]; [6]): +46.2% | helper lymphocytes (Male Wistar rats [1]; [6]): +41.5% | lymphocytes (Male Wistar rats [1]; [6]): +60.5% | supp. lymphocytes (Male Wistar rats [1]; [6]): unch. | AP (alkaline phosphatase) (Male Wistar rats [2]; [7]): −13.4% | Ca (Male Wistar rats [2]; [7]): −28.9% | GLDH (Male Wistar rats [2]; [7]): −31.3% | GOT (Male Wistar rats [2]; [7]): unch. | GPT (Male Wistar rats [2]; [7]): −24.4% | bilirubin (Male Wistar rats [2]; [7]): +20.7% | cholesterol (Male Wistar rats [2]; [7]): −24.9% | creatinin (Male Wistar rats [2]; [7]): −49.7% | glucose (Male Wistar rats [2]; [7]): unch. | triglycerides (Male Wistar rats [2]; [7]): −29.6% | urea (Male Wistar rats [2]; [7]): −7.3% | RBC (number of erythrocytes) (Male Wistar rats [3]; [8]): unchanged | WBC (number of leucocytes) (Male Wistar rats [3]; [8]): +61.0%
